Source: ChEMBL document CHEMBL3992531, “Identification of new pyrrolo[2,3-d]pyrimidines as Src tyrosine kinase inhibitors in vitro active against Glioblastoma” (Eur J Med Chem, 2017)
Calls of active or inactive are those of the source. No cut-off for these calls is given here.

What was measured:
[1] = biological target: Proto-oncogene tyrosine-protein kinase Src (Homo sapiens, UniProt P12931); test: Inhibition of human recombinant full length N-terminal His6-tagged Src expressed in Sf21 cells using KVEKIGEGTYGVVYK as substrate after 10 mins in presence of [gamma-33P]ATP by scintillation counting method
Proto-oncogene tyrosine-protein kinase Src, sequence (P12931 2-536 limits assumed): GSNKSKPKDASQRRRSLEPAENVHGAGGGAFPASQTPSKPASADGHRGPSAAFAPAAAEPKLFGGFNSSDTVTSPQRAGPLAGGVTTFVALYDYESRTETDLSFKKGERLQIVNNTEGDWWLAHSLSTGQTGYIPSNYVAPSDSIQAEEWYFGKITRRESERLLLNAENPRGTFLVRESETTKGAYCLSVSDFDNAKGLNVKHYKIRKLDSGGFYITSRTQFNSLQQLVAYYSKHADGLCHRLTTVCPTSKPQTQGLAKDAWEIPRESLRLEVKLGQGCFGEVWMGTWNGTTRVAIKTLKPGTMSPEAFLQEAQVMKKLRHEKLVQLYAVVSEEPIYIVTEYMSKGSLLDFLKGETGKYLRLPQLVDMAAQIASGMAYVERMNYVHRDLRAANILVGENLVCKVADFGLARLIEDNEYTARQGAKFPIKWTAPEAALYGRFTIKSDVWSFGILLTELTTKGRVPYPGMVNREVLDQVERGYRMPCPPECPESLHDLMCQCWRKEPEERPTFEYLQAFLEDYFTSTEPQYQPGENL

[2] = biological target: Tyrosine-protein kinase Fyn (Homo sapiens, UniProt P06241); test: Inhibition of human recombinant full length N-terminal His6-tagged Fyn expressed in baculovirus infected Sf21 cells using KVEKIGEGTYGVVYK as substrate after 10 mins in presence of [gamma-33P]ATP by scintillation counting method
Tyrosine-protein kinase Fyn, sequence (P06241 whole entry, the tested form may be a part): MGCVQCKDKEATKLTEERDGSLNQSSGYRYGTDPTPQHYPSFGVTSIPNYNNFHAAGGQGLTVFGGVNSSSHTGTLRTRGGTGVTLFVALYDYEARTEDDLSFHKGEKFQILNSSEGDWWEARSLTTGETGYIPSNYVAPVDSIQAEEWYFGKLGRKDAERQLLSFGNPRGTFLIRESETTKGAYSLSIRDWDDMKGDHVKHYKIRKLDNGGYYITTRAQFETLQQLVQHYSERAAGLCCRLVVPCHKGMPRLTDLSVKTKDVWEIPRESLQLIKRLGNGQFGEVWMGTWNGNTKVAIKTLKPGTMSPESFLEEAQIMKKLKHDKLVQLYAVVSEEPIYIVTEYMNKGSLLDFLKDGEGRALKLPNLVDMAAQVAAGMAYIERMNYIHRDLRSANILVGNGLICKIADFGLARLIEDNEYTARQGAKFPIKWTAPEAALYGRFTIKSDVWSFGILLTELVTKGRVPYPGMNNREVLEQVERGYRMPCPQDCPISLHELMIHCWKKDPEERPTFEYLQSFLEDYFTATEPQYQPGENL

[3] = biological target: Mast/stem cell growth factor receptor Kit (Homo sapiens, UniProt P10721); test: Inhibition of human recombinant GST-His6-tagged Kit C-terminal fragment (544 to 976 residues) using GGMEDIYFEFMGGKKK as substrate after 10 mins in presence of [gamma-33P]ATP by scintillation counting method
Mast/stem cell growth factor receptor Kit, sequence (P10721 whole entry, the tested form may be a part): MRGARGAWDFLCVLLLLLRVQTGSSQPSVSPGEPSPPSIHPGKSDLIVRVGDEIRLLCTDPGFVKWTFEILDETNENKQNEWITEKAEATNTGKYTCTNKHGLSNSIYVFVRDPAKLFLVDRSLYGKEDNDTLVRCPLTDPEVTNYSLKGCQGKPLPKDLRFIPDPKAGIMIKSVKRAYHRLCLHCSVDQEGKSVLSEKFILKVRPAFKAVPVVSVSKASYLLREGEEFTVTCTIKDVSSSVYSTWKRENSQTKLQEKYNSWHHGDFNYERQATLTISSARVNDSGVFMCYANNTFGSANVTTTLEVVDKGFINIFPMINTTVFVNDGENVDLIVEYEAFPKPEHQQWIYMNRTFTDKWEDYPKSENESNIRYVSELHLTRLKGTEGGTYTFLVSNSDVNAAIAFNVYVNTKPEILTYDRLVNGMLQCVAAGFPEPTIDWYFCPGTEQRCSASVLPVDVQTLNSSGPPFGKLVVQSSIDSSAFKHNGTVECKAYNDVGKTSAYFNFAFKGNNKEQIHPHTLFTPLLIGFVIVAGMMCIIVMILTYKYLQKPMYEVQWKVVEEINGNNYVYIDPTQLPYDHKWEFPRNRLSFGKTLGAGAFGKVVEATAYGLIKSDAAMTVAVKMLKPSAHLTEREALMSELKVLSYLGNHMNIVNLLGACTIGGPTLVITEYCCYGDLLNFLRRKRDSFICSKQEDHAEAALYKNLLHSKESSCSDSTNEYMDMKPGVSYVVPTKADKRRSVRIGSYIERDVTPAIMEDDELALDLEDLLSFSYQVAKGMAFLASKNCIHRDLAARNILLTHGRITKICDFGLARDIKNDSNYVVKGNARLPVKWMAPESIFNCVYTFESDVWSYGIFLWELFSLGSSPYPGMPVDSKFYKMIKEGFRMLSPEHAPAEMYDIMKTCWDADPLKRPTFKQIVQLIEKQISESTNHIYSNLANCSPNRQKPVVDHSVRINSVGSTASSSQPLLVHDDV

[4] = tested on: Tyrosine-protein kinase ABL1 (Homo sapiens), P00519 [T315I]; test: Inhibition of Abl T315I mutant (unknown origin)
[5] = biological target: Tyrosine-protein kinase ABL1 (Homo sapiens, UniProt P00519); test: Inhibition of Abl (unknown origin)
[6] = biological target: T1, Receptor-type tyrosine-protein kinase FLT3 (Homo sapiens, UniProt P36888); test: Inhibition of Flt3 (unknown origin) using KVEKIGEGTYGVVYK as substrate after 10 mins in presence of [gamma-33P]ATP by scintillation counting method
T1 sequence (P36888 whole entry): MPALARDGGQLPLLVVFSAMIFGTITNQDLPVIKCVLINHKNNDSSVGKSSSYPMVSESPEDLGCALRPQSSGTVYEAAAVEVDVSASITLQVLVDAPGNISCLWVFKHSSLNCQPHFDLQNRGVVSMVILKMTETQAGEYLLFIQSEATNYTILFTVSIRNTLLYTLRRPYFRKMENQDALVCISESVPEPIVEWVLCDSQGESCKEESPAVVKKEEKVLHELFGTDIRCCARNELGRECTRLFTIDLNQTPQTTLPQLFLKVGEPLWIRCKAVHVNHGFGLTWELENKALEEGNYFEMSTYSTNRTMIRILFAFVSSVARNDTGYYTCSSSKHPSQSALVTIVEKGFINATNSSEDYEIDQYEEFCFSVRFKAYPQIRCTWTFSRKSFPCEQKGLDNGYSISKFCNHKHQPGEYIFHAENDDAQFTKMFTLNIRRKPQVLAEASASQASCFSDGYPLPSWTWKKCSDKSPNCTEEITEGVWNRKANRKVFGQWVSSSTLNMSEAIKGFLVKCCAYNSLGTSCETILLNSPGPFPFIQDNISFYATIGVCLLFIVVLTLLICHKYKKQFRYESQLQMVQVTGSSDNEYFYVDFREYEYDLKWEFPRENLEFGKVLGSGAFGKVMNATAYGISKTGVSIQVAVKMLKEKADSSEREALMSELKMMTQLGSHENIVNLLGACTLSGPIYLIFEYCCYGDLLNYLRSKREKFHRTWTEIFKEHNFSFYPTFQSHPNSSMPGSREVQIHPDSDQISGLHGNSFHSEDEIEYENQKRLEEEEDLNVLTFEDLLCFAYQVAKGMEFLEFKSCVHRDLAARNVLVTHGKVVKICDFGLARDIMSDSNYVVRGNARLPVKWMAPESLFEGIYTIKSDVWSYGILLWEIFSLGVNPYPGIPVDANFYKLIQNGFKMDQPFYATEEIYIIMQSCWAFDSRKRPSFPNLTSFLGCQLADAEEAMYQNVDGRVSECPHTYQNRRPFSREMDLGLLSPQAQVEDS

[7] = tested on: Epidermal growth factor receptor (Homo sapiens), P00533 [L861Q]; test: Inhibition of human recombinant N-terminal GST-tagged EGFR (696 residue-end) L861Q mutant expressed in baculovirus infected Sf21 cells using angiotensin-2 as substrate after 10 mins in presence of [gamma-33P]ATP by scintillation counting method
Epidermal growth factor receptor (Homo sapiens), P00533 [L861Q], sequence (P00533 whole entry L861Q): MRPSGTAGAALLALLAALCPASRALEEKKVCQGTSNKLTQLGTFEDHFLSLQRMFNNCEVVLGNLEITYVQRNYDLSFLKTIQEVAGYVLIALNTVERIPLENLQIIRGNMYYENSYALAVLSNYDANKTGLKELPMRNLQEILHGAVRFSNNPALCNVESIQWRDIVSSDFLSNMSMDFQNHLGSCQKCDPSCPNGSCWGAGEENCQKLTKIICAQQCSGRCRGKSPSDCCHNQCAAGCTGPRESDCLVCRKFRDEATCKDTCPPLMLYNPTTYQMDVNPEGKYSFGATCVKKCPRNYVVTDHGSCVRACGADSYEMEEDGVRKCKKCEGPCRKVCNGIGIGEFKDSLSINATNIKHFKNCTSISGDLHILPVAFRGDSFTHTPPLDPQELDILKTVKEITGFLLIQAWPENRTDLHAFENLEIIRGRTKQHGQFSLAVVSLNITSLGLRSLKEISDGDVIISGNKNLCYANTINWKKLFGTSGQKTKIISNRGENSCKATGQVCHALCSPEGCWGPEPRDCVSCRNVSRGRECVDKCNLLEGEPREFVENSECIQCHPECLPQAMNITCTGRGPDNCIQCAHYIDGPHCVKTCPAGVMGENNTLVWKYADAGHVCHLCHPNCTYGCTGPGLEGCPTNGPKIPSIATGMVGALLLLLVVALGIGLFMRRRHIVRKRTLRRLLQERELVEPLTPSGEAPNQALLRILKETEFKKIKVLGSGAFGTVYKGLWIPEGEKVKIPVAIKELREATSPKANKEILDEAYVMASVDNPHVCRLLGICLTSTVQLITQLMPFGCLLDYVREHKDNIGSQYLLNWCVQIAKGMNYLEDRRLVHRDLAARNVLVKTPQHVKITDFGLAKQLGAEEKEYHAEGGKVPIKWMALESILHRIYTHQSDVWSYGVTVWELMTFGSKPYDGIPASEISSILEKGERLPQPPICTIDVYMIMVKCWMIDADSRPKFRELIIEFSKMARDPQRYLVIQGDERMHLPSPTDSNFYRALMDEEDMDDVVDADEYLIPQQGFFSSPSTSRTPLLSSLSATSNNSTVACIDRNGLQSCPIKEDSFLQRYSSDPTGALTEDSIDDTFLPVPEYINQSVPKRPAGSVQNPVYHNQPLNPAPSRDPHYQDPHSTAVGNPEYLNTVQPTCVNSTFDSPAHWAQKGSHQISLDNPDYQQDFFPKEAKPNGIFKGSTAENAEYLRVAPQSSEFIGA

U-87 MG = test: Cytotoxicity against human U87MG cells assessed as decrease in cell viability after 72 hrs by coulter counter analysis; format: functional, cell-based, U-87MG ATCC

Row | Compound | Ki [1] [µM] | IC50 ([2]; read-out: IC50) [µM] | IC50 [3] | inhibition [4] | IC50 ([5]; read-out: IC50) [µM] | IC50 ([6]; read-out: IC50) [µM] | inhibition [7] | IC50 (U-87 MG) [µM] | IC50 [5] | IC50 [2] | IC50 [6]
1 | CSc1nc(NCc2ccccc2)c2ccn(Cc3ccc(F)cc3)c2n1 | 0.5 | 43.2 | Not Active | inactive | 70 | 60 | inactive | 7.1 |  |  | 
2 | CSc1nc(N2CCCC2)c2ccn(Cc3ccc(F)cc3)c2n1 | 2 | 76 | Not Active | inactive |  | 64 | inactive | 51.8 | Not Active |  | 
3 | CSc1nc(NCc2ccccc2)c2ccn(CC(Cl)c3ccccc3)c2n1 (stereo not given) | 6 | 88.6 | Not Active | inactive |  | 68 | inactive | 50.7 | Not Active |  | 
4 | CSc1nc(Nc2cccc(Cl)c2)c2ccn(CC(Cl)c3ccccc3)c2n1 (stereo not given) | 0.7 | 58.2 | Not Active | inactive |  | 55 | inactive | 143 | Not Active |  | 
5 | CSc1nc(NCCc2ccc(Cl)cc2)c2ccn(Cc3ccc(F)cc3)c2n1 | 5 | 70.4 | Not Active | inactive |  | 76 | inactive | 46.1 | Not Active |  | 
6 | CCCCNc1nc(SC)nc2c1ccn2Cc1ccc(F)cc1 | 3 |  | Not Active | inactive |  |  | inactive | 20.7 | Not Active | Not Active | Not Active
7 | CSc1nc(Nc2ccccc2)c2ccn(CC(Cl)c3ccccc3)c2n1 (stereo not given) | 1.5 | 62 | Not Active | inactive |  | 72 | inactive | 27.4 | Not Active |  | 
8 | CSc1nc(N2CCCCC2)c2ccn(Cc3ccc(F)cc3)c2n1 | 2.5 | 57.1 | Not Active | inactive |  | 61 | inactive | 50.7 | Not Active |  | 
9 | CSc1nc(NCCc2ccccc2)c2ccn(Cc3ccc(F)cc3)c2n1 | 0.8 | 30.8 | Not Active | inactive |  |  | inactive | 13.3 | Not Active |  | Not Active
10 | CSc1nc(N2CCOCC2)c2ccn(Cc3ccc(F)cc3)c2n1 | 4.7 |  | Not Active | inactive |  | 61 | inactive | 20.3 | Not Active | Not Active | 
